These are literature values, as cited in patent publication US8715728B2, “Extended release pellet formulation containing pramipexole or a pharmaceutically acceptable salt thereof” (Boehringer Ingelheim International GmbH, priority 2004, dated 2014).

For data set [1] the following is noted: in vivo.
Assay in data set [2]: not given
This is another data set of the same source.

Where a name gives a salt, the structure may show the parent alone.

In the case of `CCCN[C@H]1CCc2nc(N)sc2C1` [Pramipexole dihydrochloride monohydrate, pramipexole dihydrochloride monohydrate], for the setting “between pH 2 and pH 7.4”, the “solubility in buffer media” value is recorded as “above 10 mg/ml”. The Water solubility entry (water) is on record as “more than 20 mg/mL”.
As to `CCCN[C@H]1CCc2nc(N)sc2C1` [Pramipexole, (S)-2-amino-4,5,6,7-tetrahydro-6-(propylamino)benzothiazole], the kinetics entry in data set [1] is “linear kinetics”. Further, the stability in solution result in data set [2] (in solution, light) is reported as “light sensitive”. Further, the “stability in the solid state” value in data set [2] (solid state) is given as “very stable”.
